According to patent US20120115865A1, “New Salts of an Indole Derivative and Their Use in Medicine” (priority 2006, published 2012):
Where a name gives a salt, the structure may show the parent alone.

Assay: Hygroscopicity by Dynamic Vapour Sorption Analysis (DVS)
Assay type: physicochemical
Details: 25° C.
Description: Dynamic Vapour Sorption Analysis (DVS)
The studies were undertaken using Dynamic Vapour Sorption Appararatus (DVS, Surface Measurement Systems, London UK). The apparatus consists of Cahn micobalance housed inside a temperature-controled cabinet. All experiments were performed at 25° C. The DVS was used to characterize the moisture uptake (% w/w) at different relative humidities (RH). Samples (5-10 mg) were weighed directly into the DSV sample cup and exposed to different relative humidities.

| Compound | moisture uptake (relative humidity 40%) [% w/w] | moisture uptake (relative humidity 60%) [% w/w] | moisture uptake (relative humidity 80%) [% w/w] |
| --- | --- | --- | --- |
| N#Cc1ccc2[nH]c(O)c(-c3ccc(CN4CCOCC4)cn3)c2c1.O=C(O)/C=C\C(=O)O [Maleate, 2-hydroxy-3-[5-(morpholin-4-ylmethyl)pyridin-2-yl]1H-indole-5-carbonitrile maleate] | 1.7 | 2.2 | 2.7 |
| N#Cc1ccc2[nH]c(O)c(-c3ccc(CN4CCOCC4)cn3)c2c1.O=C(O)/C=C/C(=O)O [Fumarate, 2-hydroxy-3-[5-(morpholin-4-ylmethyl)pyridin-2-yl]1H-indole-5-carbonitrile fumarate] | 3.8 | 4.5 | 5.1 |
| CS(=O)(=O)O.N#Cc1ccc2[nH]c(O)c(-c3ccc(CN4CCOCC4)cn3)c2c1 [Mesylate, 2-Hydroxy-3-[5-(morpholin-4-ylmethyl)pyridin-2-yl]1H-indole-5-carbonitrile mesylate] | 0.7 | 1.1 | 1.6 |
| N#Cc1ccc2[nH]c(O)c(-c3ccc(CN4CCOCC4)cn3)c2c1 [HCl, 2-hydroxy-3-[5-(morpholin-4-ylmethyl)pyridin-2-yl]1H-indole-5-carbonitrile, reference compound] | 8.7 | 11.5 | 13.0 |
| 2-Hydroxy-3-[5-(morpholin-4-ylmethyl)pyridin-2-yl]1H-indole-5-carbonitrile edisylate | 5.1 | 6.6 | 8.2 |
| N#Cc1ccc2[nH]c(O)c(-c3ccc(CN4CCOCC4)cn3)c2c1.O=P(O)(O)O [Phosphate, 2-hydroxy-3-[5-(morpholin-4-ylmethyl)pyridin-2-yl]1H-indole-5-carbonitrile phosphate] | 4.1 | 6.6 | 10.8 |
| CCS(=O)(=O)O.N#Cc1ccc2[nH]c(O)c(-c3ccc(CN4CCOCC4)cn3)c2c1 [Esylate, 2-Hydroxy-3-[5-(morpholin-4-ylmethyl)pyridin-2-yl]1H-indole-5-carbonitrile esylate] | 0.5 | 0.8 | 1.2 |
